Where “and” joins values, the source holds several entries; their conditions need not be identical. Equal entries are not always repeated.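 These data come from cells grown in 96-well plates and exposed to compound for 48 hours at five concentrations. The concentration for 50% growth inhibition is given as GI50. TGI: concentration producing complete growth inhibition.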
Key:
Assay in all cases: growth of human tumour cells (NCI), 48 h
DU-145 prostate = tested on: DU-145 prostate
HOP-62 NSCLC = tested on: HOP-62 NSCLC
HS 578T breast = tested on: HS 578T breast
KM12 colon = tested on: KM12 colon
MALME-3M melanoma = tested on: MALME-3M melanoma
MOLT-4 leukemia = tested on: MOLT-4 leukemia
NCI-H23 lung = tested on: NCI-H23 lung
OVCAR-8 ovarian = tested on: OVCAR-8 ovarian
RPMI-8226 leukemia = tested on: RPMI-8226 leukemia
SK-MEL-5 melanoma = tested on: SK-MEL-5 melanoma

O=S(=O)(/C=C/C=C/S(=O)(=O)c1ccccc1)c1ccccc1 was tested, and the TGI (DU-145 prostate) was 27.7 µM, the GI50 (HOP-62 NSCLC) was 8.81 µM and the TGI (HOP-62 NSCLC) was 20.9 µM. For the same compound, the GI50 (HS 578T breast) was 2.93 µM, the TGI (HS 578T breast) was 8.24 µM and 8.07 µM and the GI50 (KM12 colon) was 11.1 µM. For the same compound, the TGI (KM12 colon) was 4.25 µM and 23.5 µM, the GI50 (MALME-3M melanoma) was 1.54 µM and the TGI (MALME-3M melanoma) was 2.8 µM and 3.01 µM. The TGI (MOLT-4 leukemia) was 1.85 µM, the GI50 (NCI-H23 lung) was 1.06 µM and the TGI (NCI-H23 lung) was 3.14 µM and 2.62 µM. For the same compound, the GI50 (OVCAR-8 ovarian) was 2.61 µM, the TGI (OVCAR-8 ovarian) was 2.12 µM and 5.95 µM and the TGI (RPMI-8226 leukemia) was 1.66 µM. The GI50 (SK-MEL-5 melanoma) was 1.49 µM and the TGI (SK-MEL-5 melanoma) was 2.68 µM and 2.98 µM.
CC(C)(Cl)CCC1=C(Cl)C(=O)c2ccccc2C1=O gave a GI50 (DU-145 prostate) of 6.12 µM, a TGI (DU-145 prostate) of 18.2 µM and a GI50 (HOP-62 NSCLC) of 4.71 µM. The TGI (HOP-62 NSCLC) was 17 µM, the GI50 (HS 578T breast) was 3.26 µM and the TGI (HS 578T breast) was 45.8 µM. For the same compound, the GI50 (KM12 colon) was 2.28 µM, the TGI (KM12 colon) was 5.32 µM and the GI50 (MOLT-4 leukemia) was 1.91 µM. The TGI (MOLT-4 leukemia) was 6.04 µM, the GI50 (NCI-H23 lung) was 2.82 µM and the TGI (NCI-H23 lung) was 9.93 µM. The GI50 (OVCAR-8 ovarian) was 2.03 µM, the TGI (OVCAR-8 ovarian) was 5.03 µM and the GI50 (RPMI-8226 leukemia) was 1.78 µM. It also gave a TGI (RPMI-8226 leukemia) of 4.65 µM, a GI50 (SK-MEL-5 melanoma) of 1.78 µM and a TGI (SK-MEL-5 melanoma) of 3.57 µM.
Compound C/C(=C\c1ccn(-c2ccc(N)c(C(F)(F)F)c2)n1)[C@@H]1C[C@@H]2O[C@]2(C)CCC[C@H](C)[C@H](O)[C@@H](C)C(=O)C(C)(C)[C@@H](O)CC(=O)O1 has a GI50 (DU-145 prostate) of 0.0113 µM, a TGI (DU-145 prostate) of 0.0969 µM and a GI50 (HOP-62 NSCLC) of 0.0212 µM. For the same compound, the TGI (HOP-62 NSCLC) was > 20.3 µM, the GI50 (HS 578T breast) was 0.0103 µM and the TGI (HS 578T breast) was 11 µM. The GI50 (KM12 colon) was 0.00869 µM, the TGI (KM12 colon) was > 32.5 µM and the GI50 (MALME-3M melanoma) was 0.015 µM. The TGI (MALME-3M melanoma) was 16.7 µM, the GI50 (MOLT-4 leukemia) was 0.0166 µM and the TGI (MOLT-4 leukemia) was 19.8 µM. For the same compound, the GI50 (NCI-H23 lung) was 0.0221 µM, the TGI (NCI-H23 lung) was > 32.5 µM and the GI50 (OVCAR-8 ovarian) was 0.0177 µM. The TGI (OVCAR-8 ovarian) was > 28.1 µM, the GI50 (RPMI-8226 leukemia) was < 0.0104 µM and the TGI (RPMI-8226 leukemia) was 10.5 µM. For the same compound, the GI50 (SK-MEL-5 melanoma) was < 0.0108 µM and the TGI (SK-MEL-5 melanoma) was 3.78 µM.
For O=C1C2CC3C(CC2C(=O)[N]1[Sn]([c]1ccccc1)([c]1ccccc1)[c]1ccccc1)C1(Cl)C(Cl)=C(Cl)C3(Cl)C1(Cl)Cl (stereo not given), the GI50 (DU-145 prostate) was 0.0701 µM, the TGI (DU-145 prostate) was 0.2 µM and the GI50 (HOP-62 NSCLC) was 0.192 µM. It also gave a TGI (HOP-62 NSCLC) of 0.427 µM, a GI50 (HS 578T breast) of 0.204 µM and a TGI (HS 578T breast) of 1.11 µM. The GI50 (KM12 colon) was 0.13 µM, the TGI (KM12 colon) was 0.29 µM and the GI50 (MALME-3M melanoma) was 0.195 µM. The TGI (MALME-3M melanoma) was 0.387 µM, the GI50 (MOLT-4 leukemia) was 0.0827 µM and the TGI (MOLT-4 leukemia) was 0.546 µM. For the same compound, the GI50 (NCI-H23 lung) was 0.15 µM, the TGI (NCI-H23 lung) was 0.388 µM and the GI50 (OVCAR-8 ovarian) was 0.155 µM. It also gave a TGI (OVCAR-8 ovarian) of 0.375 µM, a GI50 (RPMI-8226 leukemia) of 0.106 µM and a TGI (RPMI-8226 leukemia) of 0.53 µM. The GI50 (SK-MEL-5 melanoma) was 0.145 µM and the TGI (SK-MEL-5 melanoma) was 0.301 µM.
For CC(=O)O[C@H](C[C@H](C(C)C)N(C)C(=O)[C@@H](NC(=O)[C@H]1CCCCN1C)C(C)C)c1nc(C(=O)N[C@@H](Cc2ccccc2)C[C@H](C)C(=O)O)c(C)s1, the GI50 (DU-145 prostate) was < 0.0025 µM, the TGI (DU-145 prostate) was > 25 µM and the GI50 (HOP-62 NSCLC) was < 0.0025 µM. The TGI (HOP-62 NSCLC) was > 25 µM, the GI50 (HS 578T breast) was < 0.0025 µM and the TGI (HS 578T breast) was > 25 µM. The GI50 (KM12 colon) was < 0.0025 µM, the TGI (KM12 colon) was > 25 µM and the GI50 (MALME-3M melanoma) was 4.56 µM. The TGI (MALME-3M melanoma) was > 25 µM, the GI50 (MOLT-4 leukemia) was < 0.0025 µM and the TGI (MOLT-4 leukemia) was > 25 µM. For the same compound, the GI50 (NCI-H23 lung) was < 0.0025 µM, the TGI (NCI-H23 lung) was > 25 µM and the GI50 (OVCAR-8 ovarian) was < 0.0025 µM. For the same compound, the TGI (OVCAR-8 ovarian) was > 25 µM, the GI50 (RPMI-8226 leukemia) was < 0.0025 µM and the TGI (RPMI-8226 leukemia) was > 25 µM. The GI50 (SK-MEL-5 melanoma) was < 0.0025 µM and the TGI (SK-MEL-5 melanoma) was 0.0144 µM.
With N=c1nc(N)c2cc3c(N)nc(=N)c3cc12 the TGI (DU-145 prostate) was > 100 µM, the TGI (HOP-62 NSCLC) was 38.5 µM and the TGI (HS 578T breast) was > 100 µM. The TGI (KM12 colon) was > 100 µM, the TGI (MALME-3M melanoma) was 18 µM and the TGI (MOLT-4 leukemia) was > 61 µM. The TGI (NCI-H23 lung) was > 100 µM, the TGI (OVCAR-8 ovarian) was 35 µM and the TGI (RPMI-8226 leukemia) was 23.9 µM. The TGI (SK-MEL-5 melanoma) was > 100 µM.

From PubChem BioAssay (NCI)
